Peptide text beside a SMILES is read from it. * marks the point of attachment. NOTA = O=C(O)CN1CCN(CC(=O)O)CCN(CC(=O)*)CC1; AEEEA = NCCOCCOCCOCC(=O)O
Experiments:
[1] = In vitro stability in saline (radio-HPLC); assay type: physicochemical; conditions: room temperature, over 4 h (0.5, 1, 2, 4 h), 3.74 MBq
Protocol: (§1) The in vitro stability of [^68Ga]Ga-HN11-1 and [^68Ga]Ga-HN11-2 (3.74 MBq) in saline and serum was tested by radio-HPLC analysis of its radiochemical purity after incubation at room temperature for 0.5 , 1 , 2 and 4 h.

[2] = In vitro stability in serum (radio-HPLC); assay type: in vitro ADME; conditions: room temperature, over 4 h (0.5, 1, 2, 4 h), 3.74 MBq, read-out: in vitro stability in serum (radiochemical purity)
Protocol: as §1

[3] = system: A549-PD-L2 cell lines; assay: Cell uptake assay; assay type: cell-based; conditions: A549-PD-L2 cells, n = 5; for cell uptake rate: mean ± SD
Protocol: Cell uptake assays were conducted to measure the uptake of [^68Ga]Ga-HN11-1 and [^68Ga]Ga-HN11-2 in A549 and A459-PD-L2 cell lines following incubation periods of 15, 30, 60, and 90 min. Blocking studies were performed by coincubating cells with an excess of precursor (HN11-1 / HN11-2), and then the cell uptakes of [^68Ga]Ga-HN11-1 and [^68Ga]Ga-HN11-2 were performed in A459-PD-L2 cell lines after 60 min of incubation. The experiment details are provided in the SI.
All tumor cells (1 × 10^6 per well) were seeded in two 24 - well plates, incubated for 24 h and then added with […] of [^68Ga]Ga-HN11-1 or [^68Ga]Ga-HN11-2 per well. After 15, 30, 60 and 90 min of uptake, the cells were separated from the medium, washed with 500 μL of cold PBS for three times and dissolved with 1 M NaOH. At different time points, these cells were collected and counted by using a γ-counter (WIZARD 2480, Pekin Elmer). For in vitro blocking experiments, cells were co-incubated with 10 μg of cold HN11-1 or HN11-2 precursor. After incubation, the cells were washed, collected and measured with a γ-counter, either. The IC50 values of [^68Ga]Ga-HN11-1 or [^68Ga]Ga-HN11-2 were determined using GraphPad Prism 8.0.2 software, respectively.

[4] = system: A549 tumor xenograft models; assay: Dynamic micro-PET imaging in A549 xenografts; assay type: in vivo, BALB/C nude mice; conditions: each time point 10 to 60 min, n = 3
Protocol: Micro-PET imaging was conducted using an Inveon PET scanner (Siemens, Germany). Dynamic PET examine were acquired over the first 60 min following the simultaneous injection of 7.4 to 9.25 MBq (200 to 250 μCi) of [^68Ga]Ga-HN11-1 and [^68Ga]Ga-HN11-2. After reconstructing the images and delineating the regions of interest (ROIs), time-radioactivity curves were plotted to obtain the Tumor/Muscle (T/M) ratios. %ID/g represents the percentage of the injected dose of the radiotracer that accumulates in a specific tissue per gram of tissue weight. For the biodistribution study, the xenograft models received an intravenous injection of 3.7 to 5.5 MBq (100 to 150 μCi) of [^68Ga]Ga-HN11-1. After the designated period (10, 30, 60, and 90 min), the mice were euthanized, and important tissues and organs were dissected and collected. The samples were counted using the γ-counter for determining the %ID/g, presented as mean ± standard deviation (SD).
A549 cell lines were provided by the China Center for Type Culture Collection (CCTCC) and cultured in RPMI-1640 medium supplemented with 10 % fetal bovine serum and 100 U/mL penicillin-streptomycin. The lentivirus system was implemented to introduce PD-L2 (PDCD1LG2) over-expressed cDNA into the A549 cells. […] Transfection efficiency was identified by WB and real-time quantitative PCR. […]

[5] = system: A549-PD-L2 xenograft models; assay: Static PET/CT imaging with blocking; assay type: in vivo, BALB/C nude mice; conditions: 60 min, pretreatment i.v. with excess HN11-1 / HN11-2 (10 mg/kg), n = 3
Protocol: The static PET/CT imaging in A549 and A549-PD-L2 xenograft models after injection of 5.55 to 7.4 MBq (150 to 200 μCi) of [^68Ga]Ga-HN11-1 or [^68Ga]Ga-HN11-2 were acquired at 60 min. In the [^68Ga]Ga-HN11-1 + block or [^68Ga]Ga-HN11-2 + block groups, the xenograft models underwent pretreatment via intravenous injection of HN11-1 or HN-2 (10 mg/kg) before PET/CT imaging. Then, ROIs were delineated for each group. After imaging, tumor tissues from both the A549 and A459-PD-L2 xenograft tumors were extracted, and the PD-L2 expression was tested by IHC. For the pharmacokinetics study, healthy BALB/C mouse received an intravenous injection of 5.55 MBq (150 μCi) of [^68Ga]Ga-HN11-1 and [^68Ga]Ga-HN11-2. Measure the activity of blood samples (%ID/g, mean ± SD) at the corresponding time points, and the time-activity curve was plotted. Subsequently, pharmacokinetic parameters were tested using the noncompartmental model in Phoenix WinNonlin 8.1 software (Certara, USA).

[6] = Safety after intravenous injection in volunteers and patients; assay type: in vivo, human; conditions: 3 healthy volunteers and 6 patients, intravenous injection 3.1 to 4.9 MBq/kg
Protocol: The program content was explained to all healthy volunteers and cancer patients, and written informed consent was obtained. Whole-body dynamic imaging was conducted for 60 min using a PET/CT 690 Elite scanner (GE Discovery) immediately after intravenous injection of [^68Ga]Ga-HN11-1 (3.1 to 4.9 MBq/kg). A static body scan was performed 15 to 45 min after injection. All cancer patients underwent [^18F]F-FDG and [^68Ga]Ga-HN11-1 PET/CT imaging within 5 d. Two nuclear medicine physicians reconstructed and reviewed the images on GE aw 4.6 workstations and reached a consensus. They delineated the ROIs and measured the values of maximum standard uptake and average standard uptake (SUVmax and SUVmean). The biological distribution of [^68Ga]Ga-HN11-1 in healthy volunteers was determined by SUVmax and SUVmean. The OLINDA/EXM software (version 1.0, Hermes Medical Solutions AB) was used to estimate the human radiation dose based on the SUVmean of each organ.

in vitro stability in saline (radiochemical purity) [1]: > 95% | remaining at 4 h [2]: > 95%
SMILES: CC[C@H](C)[C@H](NC(=O)[C@H](CCCNC(=N)N)NC(=O)CNC(=O)[C@H](CCC(=O)O)NC(=O)[C@H](CC(N)=O)NC(=O)[C@H](Cc1ccc(O)cc1)NC(=O)[C@H](CCCNC(=N)N)NC(=O)[C@H](Cc1ccc(O)cc1)NC(=O)[C@H](Cc1c[nH]cn1)NC(=O)COCCOCCOCCNC(=O)CN1CCN(CC(=O)O)CCN(CC(=O)O)CC1)C(=O)N[C@@H](CCCNC(=N)N)C(=O)N[C@@H](CC(N)=O)C(=O)O [[^68Ga]Ga-HN11-1, metal not drawn] ({NOTA-AEEEA}-HYRYNEGRIRN-OH)
cell uptake rate ([3]; 30 min incubation, γ-counter): 4.51 ± 0.04% | cell uptake, block group ([3]; 60 min, with excess (10 μg) of cold HN11-1 / HN11-2 precursor): 1.43 ± 0.13% | cell uptake rate ([3]; 60 min incubation): 4.87 ± 0.28% | tumor uptake in A549 tumor xenograft models [4]: almost negligible | tumor uptake after blocking [5]: 0.74 ± 0.03 %ID/g | tolerability / adverse pharmacological reactions [6]: well tolerated and without adverse pharmacological reactions observed

Source: PMC11528066, “Noninvasive Monitoring of Programmed Death-Ligand 2 Expression with Positron Emission Tomography using ^68Ga-labeled Peptide Antagonist in Preclinical and Exploratory Human Studies” (Research, 2024)
